{
  "source": "ChEMBL document CHEMBL3865786",
  "about": "“Scaffold-hopping of bioactive flavonoids: Discovery of aryl-pyridopyrimidinones as potent anticancer agents that inhibit catalytic role of topoisomerase IIα” (Eur J Med Chem, 2016)",
  "key": {"HEK293 [1]": {"tested_on": "HEK293", "test": "Induction of apoptosis in HEK293 cells assessed as shrinkage after 48 hrs by DAPI staining based fluorescence microscopy", "type": "functional, cell-based", "details": "Homo sapiens"}, "HEK293 [2]": {"tested_on": "HEK293", "test": "Induction of apoptosis in HEK293 cells assessed as late apoptotic cells at 2.4 uM after 48 hrs by Annexin-V/FITC/PI dual staining based flow cytometry (reference value: 0.82 +/- 0.5%)", "type": "functional, Homo sapiens"}, "[3]": {"test": "(§1) Anticlonogenic activity against HEK293 cells assessed as inhibition of colony formation incubated for 48 hrs measured after 6 days by crystal violet staining based assay", "type": "functional", "details": "Homo sapiens, read-out: LC50 (the source's name)"}, "HEK293 [4]": {"tested_on": "HEK293", "test": "as §1", "type": "functional", "details": "Homo sapiens"}, "HEK293 [5]": {"tested_on": "HEK293", "test": "Induction of apoptosis in HEK293 cells assessed as normal cells at 5 uM after 48 hrs by Annexin-V/FITC/PI dual staining based flow cytometry (reference value: 98.2 +/- 1.7%)", "type": "functional, Homo sapiens"}, "[6]": {"test": "Cytotoxicity against human HeLa cells assessed as reduction in cell viability after 48 hrs by MTT assay", "type": "functional, cell-based"}, "[7]": {"test": "Cytotoxicity against human A549 cells assessed as reduction in cell viability after 48 hrs by MTT assay", "type": "functional, cell-based", "details": "A549, 48 h"}, "HEK293 [8]": {"tested_on": "HEK293", "test": "Induction of apoptosis in HEK293 cells assessed as late apoptotic cells at 1 uM after 48 hrs by Annexin-V/FITC/PI dual staining based flow cytometry (reference value: 0.82 +/- 0.5%)", "type": "functional, Homo sapiens"}, "HEK293 [9]": {"tested_on": "HEK293", "test": "Induction of apoptosis in HEK293 cells assessed as early apoptotic cells at 1 uM after 48 hrs by Annexin-V/FITC/PI dual staining based flow cytometry (reference value: 0.19 +/- 1.4%)", "type": "functional, Homo sapiens"}, "HEK293 [10]": {"tested_on": "HEK293", "test": "Induction of apoptosis in HEK293 cells assessed as apoptotic cells at 5 uM after 48 hrs by Annexin-V/FITC/PI dual staining based flow cytometry (reference value: 0.07 +/- 0.2%)", "type": "functional, Homo sapiens"}, "HEK293 [11]": {"tested_on": "HEK293", "test": "Induction of apoptosis in HEK293 cells assessed as normal cells at 1 uM after 48 hrs by Annexin-V/FITC/PI dual staining based flow cytometry (reference value: 98.2 +/- 1.7%)", "type": "functional, Homo sapiens"}, "[12]": {"target": "DNA topoisomerase 2-alpha (Homo sapiens) (UniProt P11388)", "sequence (P11388 whole entry)": "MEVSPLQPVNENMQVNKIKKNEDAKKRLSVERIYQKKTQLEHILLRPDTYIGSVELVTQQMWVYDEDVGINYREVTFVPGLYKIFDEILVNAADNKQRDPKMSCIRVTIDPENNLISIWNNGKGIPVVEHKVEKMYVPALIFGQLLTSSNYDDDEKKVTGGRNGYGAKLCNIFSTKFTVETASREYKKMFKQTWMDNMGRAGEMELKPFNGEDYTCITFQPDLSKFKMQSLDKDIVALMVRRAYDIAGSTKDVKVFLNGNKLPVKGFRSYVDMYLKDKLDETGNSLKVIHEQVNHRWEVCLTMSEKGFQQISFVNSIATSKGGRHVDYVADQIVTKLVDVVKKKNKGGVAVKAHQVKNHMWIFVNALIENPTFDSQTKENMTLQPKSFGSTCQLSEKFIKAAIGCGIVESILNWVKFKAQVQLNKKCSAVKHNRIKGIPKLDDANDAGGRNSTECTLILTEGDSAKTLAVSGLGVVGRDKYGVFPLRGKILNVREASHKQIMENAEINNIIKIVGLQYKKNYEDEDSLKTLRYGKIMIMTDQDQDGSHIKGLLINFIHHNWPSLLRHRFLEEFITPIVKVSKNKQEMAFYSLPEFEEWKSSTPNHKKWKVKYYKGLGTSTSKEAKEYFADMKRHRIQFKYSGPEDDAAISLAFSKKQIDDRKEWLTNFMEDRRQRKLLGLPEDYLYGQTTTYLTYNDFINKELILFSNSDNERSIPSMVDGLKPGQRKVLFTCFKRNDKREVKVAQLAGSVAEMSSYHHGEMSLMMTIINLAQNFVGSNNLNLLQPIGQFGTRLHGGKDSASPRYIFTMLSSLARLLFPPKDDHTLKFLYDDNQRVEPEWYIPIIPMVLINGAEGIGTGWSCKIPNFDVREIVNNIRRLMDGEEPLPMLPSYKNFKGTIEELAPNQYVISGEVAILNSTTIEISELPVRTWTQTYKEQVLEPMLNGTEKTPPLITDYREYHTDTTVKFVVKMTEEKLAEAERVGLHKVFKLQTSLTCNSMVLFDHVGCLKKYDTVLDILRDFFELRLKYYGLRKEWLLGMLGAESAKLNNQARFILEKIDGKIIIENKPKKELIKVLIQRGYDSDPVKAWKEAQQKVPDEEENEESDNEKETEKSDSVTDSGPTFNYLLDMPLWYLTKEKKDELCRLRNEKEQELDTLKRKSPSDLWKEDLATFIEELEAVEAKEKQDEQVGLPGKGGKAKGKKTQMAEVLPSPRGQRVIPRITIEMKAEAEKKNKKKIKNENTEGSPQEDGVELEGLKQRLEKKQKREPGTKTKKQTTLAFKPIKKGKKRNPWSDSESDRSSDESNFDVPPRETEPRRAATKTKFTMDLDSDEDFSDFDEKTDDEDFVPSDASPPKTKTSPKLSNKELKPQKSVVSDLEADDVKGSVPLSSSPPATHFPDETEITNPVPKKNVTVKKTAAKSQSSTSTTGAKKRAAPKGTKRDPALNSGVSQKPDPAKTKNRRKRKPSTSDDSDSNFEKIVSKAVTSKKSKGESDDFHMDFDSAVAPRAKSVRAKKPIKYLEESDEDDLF", "test": "Inhibition of human DNA topoisomerase 2alpha-mediated decatenation of kinetoplast DNA at 100 uM after 30 mins by agarose gel electrophoresis"}, "[13]": {"test": "(§2) Cytotoxicity against HEK293 cells assessed as reduction in cell viability after 48 hrs by MTT assay", "type": "functional", "details": "Homo sapiens, HEK293, 48 h; read-out: LC50 (the source's name)"}, "HEK293 [14]": {"tested_on": "HEK293", "test": "as §2", "type": "functional", "details": "Homo sapiens"}, "HEK293 [15]": {"tested_on": "HEK293", "test": "Induction of apoptosis in HEK293 cells assessed as normal cells at 2.4 uM after 48 hrs by Annexin-V/FITC/PI dual staining based flow cytometry (reference value: 98.2 +/- 1.7%)", "type": "functional, Homo sapiens"}, "HEK293 [16]": {"tested_on": "HEK293", "test": "Induction of apoptosis in HEK293 cells assessed as apoptotic cells at 1 uM after 48 hrs by Annexin-V/FITC/PI dual staining based flow cytometry (reference value: 0.07 +/- 0.2%)", "type": "functional, Homo sapiens"}, "HEK293 [17]": {"tested_on": "HEK293", "test": "Potency index, ratio of etoposide LC50 to compound LC50 for anticlonogenic activity in HEK293 cells", "type": "functional, Homo sapiens"}, "HEK293 [18]": {"tested_on": "HEK293", "test": "Induction of apoptosis in HEK293 cells assessed as late apoptotic cells at 5 uM after 48 hrs by Annexin-V/FITC/PI dual staining based flow cytometry (reference value: 0.82 +/- 0.5%)", "type": "functional, Homo sapiens"}, "[19]": {"test": "Cytotoxicity against human HCT116 cells assessed as reduction in cell viability after 48 hrs by MTT assay", "type": "functional, cell-based", "details": "HCT-116, 48 h"}, "HEK293 [20]": {"tested_on": "HEK293", "test": "Induction of apoptosis in HEK293 cells assessed as deformation after 48 hrs by DAPI staining based fluorescence microscopy", "type": "functional, cell-based", "details": "Homo sapiens"}, "HEK293 [21]": {"tested_on": "HEK293", "test": "Induction of apoptosis in HEK293 cells after 48 hrs by Annexin V-FITC/propidium iodide staining based flow cytometry", "type": "functional, cell-based", "details": "Homo sapiens"}, "[22]": {"test": "Cytotoxicity against human MCF7 cells assessed as reduction in cell viability after 48 hrs by MTT assay", "type": "functional, cell-based", "details": "MCF7, 48 h"}, "HEK293 [23]": {"tested_on": "HEK293", "test": "Induction of apoptosis in HEK293 cells assessed as bubble shaped nuclei after 48 hrs by DAPI staining based fluorescence microscopy", "type": "functional, cell-based", "details": "Homo sapiens"}, "HEK293 [24]": {"tested_on": "HEK293", "test": "Induction of apoptosis in HEK293 cells assessed as early apoptotic cells at 5 uM after 48 hrs by Annexin-V/FITC/PI dual staining based flow cytometry (reference value: 0.19 +/- 1.4%)", "type": "functional, Homo sapiens"}, "[25]": {"test": "Cytotoxicity against human H357 cells assessed as reduction in cell viability after 48 hrs by MTT assay", "type": "functional, cell-based", "details": "H357, 48 h"}, "[26]": {"test": "Binding affinity to DNA (unknown origin) assessed as hypochromism after 1 hr by UV-Vis absorption spectrophotometric analysis"}, "HEK293 [27]": {"tested_on": "HEK293", "test": "Induction of apoptosis in HEK293 cells assessed as early apoptotic cells at 2.4 uM after 48 hrs by Annexin-V/FITC/PI dual staining based flow cytometry (reference value: 0.19 +/- 1.4%)", "type": "functional, Homo sapiens"}, "HEK293 [28]": {"tested_on": "HEK293", "test": "Induction of apoptosis in HEK293 cells assessed as apoptotic cells at 2.4 uM after 48 hrs by Annexin-V/FITC/PI dual staining based flow cytometry (reference value: 0.07 +/- 0.2%)", "type": "functional, Homo sapiens"}, "[29]": {"test": "Cytotoxicity against African green monkey Vero cells assessed as reduction in cell viability after 48 hrs by MTT assay", "type": "toxicity, cell-based", "details": "chlorocebus sabaeus"}},
  "note": "Calls of active or inactive are those of the source. The calls are words filed in the database; no cut-off is given here.",
  "data": [
    {"smiles": "O=c1cc(-c2ccc(Cl)cc2)nc2ccccn12", "values": [
      {"measurement": "Activity", "setting": "HEK293 [1]", "value": "Dose-dependent effect"},
      {"measurement": "Activity", "setting": "HEK293 [2]", "value": 12.8, "unit": "%"},
      {"measurement": "CC50", "setting": "[3]", "value": 2000, "unit": "nM"},
      {"measurement": "inhibition", "setting": "HEK293 [4]", "value": "Dose-dependent effect"},
      {"measurement": "Activity", "setting": "HEK293 [5]", "value": 77.6, "unit": "%"},
      {"measurement": "IC50", "setting": "[6]", "value": 2000, "unit": "nM"},
      {"measurement": "IC50", "setting": "[7]", "value": 2100, "unit": "nM"},
      {"measurement": "Activity", "setting": "HEK293 [8]", "value": 10.83, "unit": "%"},
      {"measurement": "Activity", "setting": "HEK293 [9]", "value": 0.02, "unit": "%"},
      {"measurement": "Activity", "setting": "HEK293 [10]", "value": 3.41, "unit": "%"},
      {"measurement": "Activity", "setting": "HEK293 [11]", "value": 88.48, "unit": "%"},
      {"measurement": "Topoisomerase 2-alpha inhibition (active/inactive)", "setting": "[12]", "value": "Active"},
      {"measurement": "CC50", "setting": "[13]", "value": 2400, "unit": "nM"},
      {"measurement": "Activity", "setting": "HEK293 [14]", "value": "Dose-dependent effect"},
      {"measurement": "Activity", "setting": "HEK293 [15]", "value": 87, "unit": "%"},
      {"measurement": "Activity", "setting": "HEK293 [16]", "value": 0.66, "unit": "%"},
      {"measurement": "RatioLC50", "setting": "HEK293 [17]", "value": "5 - 10"},
      {"measurement": "Activity", "setting": "HEK293 [18]", "value": 18.56, "unit": "%"},
      {"measurement": "IC50", "setting": "[19]", "value": 2500, "unit": "nM"},
      {"measurement": "Activity", "setting": "HEK293 [20]", "value": "Dose-dependent effect"},
      {"measurement": "Activity", "setting": "HEK293 [21]", "value": "Dose-dependent effect"},
      {"measurement": "IC50", "setting": "[22]", "value": 1800, "unit": "nM"},
      {"measurement": "Activity", "setting": "HEK293 [23]", "value": "Dose-dependent effect"},
      {"measurement": "Activity", "setting": "HEK293 [24]", "value": 0.42, "unit": "%"},
      {"measurement": "IC50", "setting": "[25]", "value": 2300, "unit": "nM"},
      {"measurement": "Activity", "setting": "[26]", "value": "Active"},
      {"measurement": "Activity", "setting": "HEK293 [27]", "value": 0, "unit": "%"},
      {"measurement": "Activity", "setting": "HEK293 [28]", "value": 0.2, "unit": "%"},
      {"measurement": "CC50 at 48 h", "setting": "[29]; Vero cells, read-out: LC50", "value": 47500, "unit": "nM"},
      {"measurement": "Activity", "setting": "[29]; vero, 48 h", "value": "Dose-dependent effect"}
    ]}
  ]
}
